How the values were obtained:
Type in all cases: in vivo
[1] = system: Pseudoperonospora cubensis; test: Cucumber Downy Mildew (PSPECU), foliar spray, percent disease control; conditions: foliar, read-out: PSPECU percent control
Cochliobolus sativus = test: Spot Blotch of Wheat (COCHSA), foliar spray, percent disease control; conditions: Bipolaris sorokiniana, foliar; read-out: COCHSA percent control
[2] = system: DROSME, AEDSAE, LAPHEG, or HELIVI; test: Insecticidal activity, active if any of DROSME, AEDSAE, LAPHEG or HELIVI was controlled at 80% or more; conditions: read-out: >80% mortality on any insect species @ 4000 ppm
Colletotricum lagenarium = test: Cucumber Anthracnose (COLLLA), foliar spray, percent disease control; conditions: foliar

Compound | pest or weed control at 200 µg/mL [1] [%] | pest or weed control at 200 µg/mL (Cochliobolus sativus) [%] | pest or weed control at 4000 ppm [2] [%] | pest or weed control at 200 µg/mL (Colletotricum lagenarium) [%]
FC(F)(F)COc1cccc(Oc2ccc(CCNc3ncnc4nccnc34)cc2)n1 [Compound 11, Pteridin-4-yl-(2-{4-[6-(2,2,2-trifluoroethoxy)-pyridin-2-yloxy]-phenyl}-ethyl)-amine] | 50 to 79 | 0 to 49 | > 80 | 0 to 49
CCOc1cccc(Oc2ccc(CCNc3ncnc4nccnc34)cc2)n1 [Compound 12, {2-[4-(6-Ethoxypyridin-2-yloxy)-phenyl]-ethyl}-pteridin-4-yl-amine] | 80 to 100 | 0 to 49 | > 80 | 0 to 49
N#Cc1cccc(Oc2ccc(CCNc3ncnc4nccnc34)cc2)n1 [Compound 13] | 80 to 100 | 0 to 49 | > 80 | 0 to 49
N#Cc1ccc(Oc2ccc(CCNc3ncnc4nccnc34)cc2)nc1 [Compound 14] | 80 to 100 | 0 to 49 | > 80 | 0 to 49
c1cnc(Oc2ccc(CCNc3ncnc4nccnc34)cc2)nc1 [Compound 15] | 80 to 100 | 0 to 49 | > 80 | 0 to 49
FC(F)(F)COc1ccnc(Oc2ccc(CCNc3ncnc4nccnc34)cc2)n1 [Compound 25] | 80 to 100 | 0 to 49 | > 80 | 0 to 49
c1cnc(Oc2ccc(CCNc3ncnc4nccnc34)cc2)cn1 [Compound 28] | 80 to 100 | 0 to 49 | > 80 | 0 to 49
O=C(c1ccc(Oc2ccc(CCNc3ncnc4nccnc34)cc2)nc1)C1CC1 [Compound 30] | 50 to 79 | 0 to 49 | > 80 | 0 to 49
FC(F)(F)c1ccc(Oc2ccc(CCNc3ncnc4nccnc34)cc2)nn1 [Compound 34] | 80 to 100 | 0 to 49 | > 80 | 0 to 49
Ic1ccnc(Oc2ccc(CCNc3ncnc4nccnc34)cc2)c1 [Compound 36, N-(2-{4-[(4-iodopyridin-2-yl)oxy]phenyl}ethyl)pteridin-4-amine] | 80 to 100 | 50 to 79 | > 80 | 50 to 79
Cc1cccc(Oc2ccc(CCNc3ncnc4nccnc34)cc2)n1 [Compound 39] | 80 to 100 | 0 to 49 | > 80 | 0 to 49
Cc1ccc(Oc2ccc(CCNc3ncnc4nccnc34)cc2)nc1 [Compound 40] | 80 to 100 | 0 to 49 | > 80 | 50 to 79
Cc1cnc2ncnc(NCCc3ccc(Oc4ccc(C(F)(F)F)cn4)cc3)c2n1 [Compound 41] | 80 to 100 | 0 to 49 | > 80 | 50 to 79
Cc1ccnc(Oc2ccc(CCNc3ncnc4nccnc34)cc2)c1 [Compound 42] | 80 to 100 | 0 to 49 | > 80 | 80 to 100
Cc1cccnc1Oc1ccc(CCNc2ncnc3nccnc23)cc1 [Compound 43] | 80 to 100 | 0 to 49 | > 80 | 0 to 49
CC(F)(F)c1ccnc(Oc2ccc(CCNc3ncnc4nccnc34)cc2)c1 [Compound 44] | 80 to 100 | 0 to 49 | > 80 | 50 to 79
c1csc(Oc2ccc(CCNc3ncnc4nccnc34)cc2)n1 [Compound 48] | 80 to 100 | 0 to 49 | > 80 | 0 to 49
COc1cc(CCNc2ncnc3nccnc23)ccc1Oc1ccc(C(F)(F)F)cn1 [Compound 49] | 80 to 100 | 50 to 79 | > 80 | 50 to 79
COc1cc(CCNc2ncnc3nccnc23)ccc1Oc1ccc(C#N)cn1 [Compound 50] | 80 to 100 | 0 to 49 | > 80 | 0 to 49
COc1cc(CCNc2ncnc3nccnc23)ccc1Oc1cc(C(F)(F)F)ccn1 [Compound 51] | 80 to 100 | 0 to 49 | > 80 | 50 to 79

Compound | pest or weed control at 200 µg/mL [1] [%] | pest or weed control at 200 µg/mL (Cochliobolus sativus) [%] | pest or weed control at 4000 ppm [2] [%] | pest or weed control at 200 µg/mL (Colletotricum lagenarium) [%]
Cc1cnc2ncnc(NCCc3ccc(Oc4ccc(C#N)cn4)cc3)c2n1 [Compound 52] | 80 to 100 | 0 to 49 | > 80 | 0 to 49
Cc1cnc2ncnc(NCCc3ccc(Oc4ncc(C(F)(F)F)cc4F)cc3)c2n1 [Compound 53] | 80 to 100 | 0 to 49 | > 80 | 80 to 100
Fc1cc(C(F)(F)F)cnc1Oc1ccc(CCNc2ncnc3nccnc23)cc1 [Compound 54] | 80 to 100 | 0 to 49 | > 80 | 80 to 100
Cc1cnc2ncnc(NCCc3ccc(Oc4nccc(C(F)(F)F)n4)cc3)c2n1 [Compound 55] | 80 to 100 | 0 to 49 | > 80 | 50 to 79
c1ccc(-c2nnsc2Oc2ccc(CCNc3ncnc4nccnc34)cc2)cc1 [Compound 58] | 50 to 79 | 0 to 49 | > 80 | 0 to 49
Cc1nnsc1Oc1ccc(CCNc2ncnc3nccnc23)cc1 [Compound 59] | 0 to 49 | 0 to 49 | > 80 | 0 to 49
FC(F)(F)c1cccnc1Oc1ccc(CCNc2ncnc3nccnc23)cc1 [Compound 60] | 80 to 100 | 0 to 49 | > 80 | 50 to 79
Cc1cnc(Oc2ccc(CCNc3ncnc4nccnc34)cc2)s1 [Compound 66] | 80 to 100 | 50 to 79 | > 80 | 80 to 100
CC(Nc1ncnc2nccnc12)c1ccc(Oc2ccc(C(F)(F)F)cn2)cc1 (stereo not shown) [Compound 67] | 80 to 100 | 0 to 49 | > 80 | 0 to 49
CC(Nc1ncnc2nccnc12)c1ccc(Oc2nccc(C(F)(F)F)n2)cc1 (stereo not shown) [Compound 68] | 80 to 100 | 0 to 49 | > 80 | 0 to 49
FC(F)(F)c1ccnc(Oc2ccc(CCNc3ncnc4ncc(Cl)nc34)cc2)n1 [Compound 75] | 0 to 49 | 0 to 49 | > 80 | 0 to 49
Cc1cnc2ncnc(NCCc3ccc(Oc4cc(C(F)(F)F)ccn4)cc3)c2n1 [Compound 76] | 80 to 100 | 0 to 49 | > 80 | 0 to 49
CC(Sc1ncnc2nccnc12)c1cccc(C(F)(F)F)c1 (stereo not shown) [Compound 79] | 0 to 49 | 0 to 49 | > 80 | 0 to 49
CC(Nc1ncnc2nccnc12)c1ccc(Oc2cc(C(F)(F)F)ccn2)cc1 (stereo not shown) [Compound 82] | 80 to 100 | 0 to 49 | > 80 | 0 to 49
FC(F)(F)c1ccc(Oc2ccc(OCCNc3ncnc4nccnc34)cc2)nc1 [Compound 84] | 80 to 100 | 0 to 49 | > 80 | 80 to 100
FC(F)(F)c1cc(Cl)nc(Oc2ccc(CCNc3ncnc4nccnc34)cc2)c1 [Compound 90, {2-[4-(6-chloro-4-trifluoromethylpyridin-2-yloxy)-phenyl]-ethyl}-pteridin-4-yl-amine] | 80 to 100 | 0 to 49 | > 80 | 0 to 49
COCCOc1cc(C(F)(F)F)cc(Oc2ccc(CCNc3ncnc4nccnc34)cc2)n1 [Compound 91, (2-{4-[6-(2-Methoxyethoxy)-4-trifluoromethyl-pyridin-2-yloxy]-phenyl}-ethyl)-pteridin-4-yl-amine] | 80 to 100 | 0 to 49 | > 80 | 0 to 49
FC(F)(F)c1nc(Oc2ccc(CCNc3ncnc4nccnc34)cc2)ccc1Cl [Compound 92] | 80 to 100 | 0 to 49 | > 80 | 0 to 49
Fc1cc(CCNc2ncnc3nccnc23)ccc1Oc1cc(C(F)(F)F)ccn1 [Compound 93] | 80 to 100 | 50 to 79 | > 80 | 80 to 100
COc1ccnc(Oc2ccc(CCNc3ncnc4nccnc34)cc2)c1 [Compound 95] | 80 to 100 | 0 to 49 | > 80 | 80 to 100
